Consider three molecules from paper PMC12921516 (ACS Bio & Med Chem Au, 2025).

One assay has as its system HepG2 cells. Put plainly: Western blotting, HepG2 normal model. It is filed as cell-based, human. The conditions noted are these: 24 h. The protocol:
(§1) HepG2 cells were obtained directly from ATCC (HB-8065) and cultured in DMEM with low glucose, supplemented with fetal bovine serum, 100 U/mL penicillin G, and […] streptomycin. The media was freshly prepared and sterilized by filtration. Cells were maintained with a maximum of 10 passages before being discarded. For cell counting, the cells were washed twice with phosphate-buffered saline (PBS), trypsinized, and counted using a Neubauer chamber. For the insulin-resistant model, 75,000 cells per well were seeded in 6-well plates at 37 °C in 5% CO2 and cultured for 72 h. Subsequently, insulin (0.1 μM) was added to induce insulin resistance for 24 h. After this period, inhibitors were incubated for 24 h, followed by a final 30 min insulin stimulation (0.1 μM) before protein extraction. For the normal model, 75,000 cells per well were seeded in 6-well plates at 37 °C in 5% CO2 and cultured for 96 h. After that, the cells were incubated with the inhibitors for 24 h, followed by protein extraction.
(§2) Treated cells were washed twice with 1 mL of PBS, and proteins were extracted using 300 μL of a buffer solution containing 10% sodium deoxycholate in 10% TEAB, supplemented with a protease and phosphatase inhibitor cocktail. The extracts were heated at 80 °C for 5 min and dissociated by repeated passages through an insulin syringe. The cell extracts were centrifuged at 15,000 rpm for 15 min at 4 °C, and the supernatant was collected. Protein quantification was performed using the bicinchoninic acid assay, and aliquots were prepared for Western blotting. SDS-PAGE was conducted, and proteins were transferred onto a nitrocellulose membrane. The membrane was blocked with 10% skim milk in TBST for 1 h and incubated overnight with primary antibodies (1:400 dilution). Secondary antibodies conjugated to horseradish peroxidase were diluted 1:2,000, and the membranes were incubated for 1 h at room temperature. Blots were visualized using the ChemiDoc MP (Bio-Rad), and densitometric analysis was performed with ImageJ (U.S. National Institutes of Health). Statistical analyses were conducted using GraphPad Prism 8.0.
compounds at 24 h of treatment. β-actin was employed as loading control. b) Densitometric analysis of western blot images
employing ImageJ analysis software. Bar graphs represent the mean ± SEM of normalized values. The control levels were set to
1. Asterisks indicate statistical significance according to the Dunn test. p* < 0.05
(§3) (1 picture or pasted object on this page, not shown here)
On the technique in general: Immunoblotting shows a protein as a band on a membrane.

For assay [1], the system named is insulin-resistant HepG2 cells. Put plainly: Western blotting, insulin-resistant HepG2 model. The conditions noted are these: 24 h. It is filed as cell-based, human. The protocol:
as §1, §2
resistance model in HepG2 cells . a) Western blotting representative analysis (n=3) of PTP1B, p -AKT, p-IRS1 and p-STAT3 levels
of HepG2 cells treated with the compounds at 24 h of treatment. β-actin was employed as loading control. b) Densitometric
analysis of western blot images employing ImageJ analysis software. Bar graphs represent the mean ± SEM of normalized values.
The control levels were set to 1. Asterisks indicate statistical significance according to the Dunn test. p* < 0.05.
as §3

`CC1(C)c2[nH]c3ccc(OC(F)F)cc3c2C[C@]2(C)[C@H]3C(=O)C=C4[C@@H]5C[C@@](C)(C(=O)O)CC[C@]5(C)CC[C@@]4(C)[C@]3(C)CC[C@@H]12` [compound 4b, (20β)-5′-(Difluoromethoxy)-11-oxo-1′H-oleana-2,12-dieno[3,2-b]indol-29-oic Acid]: the p-STAT3 levels entry with HepG2 cells is “only a minor increase”. For `CC1(C)c2[nH]c3ccc(S(N)(=O)=O)cc3c2C[C@]2(C)[C@H]3C(=O)C=C4[C@@H]5C[C@@](C)(C(=O)O)CC[C@]5(C)CC[C@@]4(C)[C@]3(C)CC[C@@H]12` [compound 4g, (20β)-5′-Sulfamoyl-11-oxo-1′H-oleana-2,12-dieno[3,2-b]indol-29-oic Acid], in the assay on HepG2 cells, the p-IRS levels result is on record as “slight but not statistically significant increase” and the p-STAT3 levels entry was “slight but not statistically significant increase”. In the case of `CC1(C)c2c(cnn2-c2ccc(S(N)(=O)=O)cc2)C[C@]2(C)[C@H]3C(=O)C=C4[C@@H]5C[C@@](C)(C(=O)O)CC[C@]5(C)CC[C@@]4(C)[C@]3(C)CC[C@@H]12` [compound 5g, (20β)-11-Oxo-2′-(4-sulfamoylphenyl)-2′H-oleana-2,12-dieno[3,2-c]pyrazol-29-oic Acid], the p-IRS levels entry in assay [1] is on record as “tendency to increase p-IRS levels”.
